Test results from patent publication US8129371B2, “Thienopyrimidine and pyrazolopyrimidine compounds and their use as mTOR kinase and PI3 kinase inhibitors” (Wyeth LLC, priority 2007, dated 2012).
Where two headings read alike, the source gives them in different places.

Tests used:
[1] = test system: prostate line LNCap; assay: In vitro cell culture growth assay (MTS), LNCap; type: cell-based; conditions: Homo sapiens, LNCaP, 72 h, LNCap cells, three days after drug treatment
Procedure, shortened: (§1)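 Inhibitors were added one day after plating, and viable cells were measured 3 days later by MTS conversion (absorbance 490 nm).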

[2] = molecular target: T1, Human mTOR (FLAG-TOR) (Homo sapiens, UniProt P42345); assay: Human mTOR kinase assay with purified enzyme, DELFIA format; type: biochemical
T1 construct: FLAG
Procedure, shortened: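 Purified FLAG-mTOR in HEPES pH 7.4 buffer with 10 mM MnCl2 was preincubated with inhibitor and reacted 2 h at room temperature with His6-S6K substrate, then stopped with EDTA/EGTA. Phospho-T389 S6K detected by DELFIA with Eu-labelled antibody (40 ng/mL) after plate capture; inhibition computed from signal.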

[3] = molecular target: T2, PI3K (Homo sapiens, UniProt P48736); assay: Fluorescence polarization assay for PI3K; type: biochemical; conditions: read-out: PI3 Kinase γ IC50
T2 construct: PI3 Kinase γ IC50; other: PI3 Kinase γ; other: PI3 Kinase γ isoform, fluorescence polarization
Procedure, shortened: (§2)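 PI3K was preincubated with compound (final DMSO 1%), and the reaction was started with PIP2/ATP substrate and run 30–60 min. It was stopped with a detector mix giving 10 nM red probe and 70 nM GST-GRP.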

[4] = molecular target: T3, PI3K (Homo sapiens, UniProt P42336); assay: Fluorescence polarization assay for PI3K; type: biochemical; conditions: read-out: PI3 Kinase α IC50
T3 construct: PI3 Kinase α IC50; other: PI3 Kinase α; other: PI3 Kinase α isoform, fluorescence polarization
Procedure, shortened: as §2

[5] = test system: breast line MDA468; assay: In vitro cell culture growth assay (MTS), MDA468; type: cell-based; conditions: Homo sapiens, 72 h, MDA468 cells, three days after drug treatment
Procedure, shortened: as §1

[6] = purified human mTOR enzyme, DELFIA format
[7] = PI3 Kinase γ isoform, fluorescence polarization
[8] = PI3 Kinase α isoform, fluorescence polarization

T2 sequence (P48736 whole entry, canonical isoform): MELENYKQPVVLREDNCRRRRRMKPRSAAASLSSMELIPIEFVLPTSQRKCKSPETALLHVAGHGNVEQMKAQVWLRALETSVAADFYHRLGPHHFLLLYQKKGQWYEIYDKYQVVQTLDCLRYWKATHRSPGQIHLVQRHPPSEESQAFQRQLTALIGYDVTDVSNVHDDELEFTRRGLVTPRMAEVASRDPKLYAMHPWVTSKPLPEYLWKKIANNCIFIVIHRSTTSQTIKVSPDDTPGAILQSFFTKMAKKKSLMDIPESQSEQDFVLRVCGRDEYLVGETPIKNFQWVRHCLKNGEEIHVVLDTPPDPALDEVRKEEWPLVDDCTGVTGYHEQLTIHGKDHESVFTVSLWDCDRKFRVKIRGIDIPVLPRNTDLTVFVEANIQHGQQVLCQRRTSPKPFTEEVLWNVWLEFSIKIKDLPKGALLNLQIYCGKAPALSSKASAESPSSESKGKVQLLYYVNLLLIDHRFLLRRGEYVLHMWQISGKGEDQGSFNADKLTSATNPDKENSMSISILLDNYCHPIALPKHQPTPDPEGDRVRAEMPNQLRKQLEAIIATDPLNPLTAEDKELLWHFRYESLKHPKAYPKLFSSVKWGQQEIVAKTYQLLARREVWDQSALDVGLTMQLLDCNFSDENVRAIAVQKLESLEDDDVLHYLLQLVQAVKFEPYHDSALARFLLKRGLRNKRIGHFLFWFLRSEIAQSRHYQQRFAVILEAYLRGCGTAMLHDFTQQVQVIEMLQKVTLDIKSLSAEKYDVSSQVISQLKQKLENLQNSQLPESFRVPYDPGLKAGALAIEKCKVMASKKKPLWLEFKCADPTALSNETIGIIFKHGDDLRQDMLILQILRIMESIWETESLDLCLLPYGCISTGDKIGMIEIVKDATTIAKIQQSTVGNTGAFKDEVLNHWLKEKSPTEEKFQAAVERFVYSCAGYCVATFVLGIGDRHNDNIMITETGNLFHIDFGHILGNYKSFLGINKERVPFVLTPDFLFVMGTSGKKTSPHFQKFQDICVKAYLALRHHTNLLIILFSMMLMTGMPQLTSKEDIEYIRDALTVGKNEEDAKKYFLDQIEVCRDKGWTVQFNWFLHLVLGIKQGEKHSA
T3 sequence (P42336 whole entry, canonical isoform): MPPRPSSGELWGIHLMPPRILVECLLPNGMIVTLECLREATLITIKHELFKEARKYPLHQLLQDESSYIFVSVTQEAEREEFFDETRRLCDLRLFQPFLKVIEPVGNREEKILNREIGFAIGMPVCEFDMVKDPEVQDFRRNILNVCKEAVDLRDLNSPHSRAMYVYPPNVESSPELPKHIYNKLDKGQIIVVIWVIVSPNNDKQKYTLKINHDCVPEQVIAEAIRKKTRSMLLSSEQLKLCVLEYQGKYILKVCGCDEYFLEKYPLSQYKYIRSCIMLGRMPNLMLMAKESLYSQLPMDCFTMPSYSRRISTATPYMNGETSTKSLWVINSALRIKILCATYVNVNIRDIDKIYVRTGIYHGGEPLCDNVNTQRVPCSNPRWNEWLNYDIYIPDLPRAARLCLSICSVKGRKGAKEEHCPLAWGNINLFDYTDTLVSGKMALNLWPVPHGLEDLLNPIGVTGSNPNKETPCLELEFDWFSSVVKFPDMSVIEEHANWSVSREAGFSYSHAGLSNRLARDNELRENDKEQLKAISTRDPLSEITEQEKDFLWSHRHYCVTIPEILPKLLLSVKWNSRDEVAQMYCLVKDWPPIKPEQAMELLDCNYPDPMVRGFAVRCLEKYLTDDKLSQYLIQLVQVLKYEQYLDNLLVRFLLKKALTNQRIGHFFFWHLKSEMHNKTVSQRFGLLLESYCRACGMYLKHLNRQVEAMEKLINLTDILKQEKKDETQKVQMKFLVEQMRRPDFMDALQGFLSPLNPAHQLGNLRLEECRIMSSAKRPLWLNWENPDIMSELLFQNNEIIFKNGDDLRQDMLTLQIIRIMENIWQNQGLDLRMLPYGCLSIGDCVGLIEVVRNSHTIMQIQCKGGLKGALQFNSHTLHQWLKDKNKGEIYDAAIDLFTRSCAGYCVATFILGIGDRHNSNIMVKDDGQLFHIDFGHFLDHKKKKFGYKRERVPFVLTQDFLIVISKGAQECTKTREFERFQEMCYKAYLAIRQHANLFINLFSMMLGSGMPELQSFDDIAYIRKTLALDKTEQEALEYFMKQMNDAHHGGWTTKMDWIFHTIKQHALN

Structure (SMILES) | IC50 [1] [nM] | IC50 [2, 6] [nM] | IC50 [3, 7] [nM] | IC50 [4, 8] [nM] | IC50 [2] [nM] | IC50 ([3]; PI3 Kinase γ) [nM] | IC50 ([4]; PI3 Kinase α) [nM] | IC50 [5] [nM]
CCn1ncc2c(N3CC4CCC(C3)O4)nc(-c3ccc(NC(=O)NCCN(C)C)cc3)nc21 [Example 175, 1-[2-(dimethylamino)ethyl]-3-{4-[1-ethyl-4-(8-oxa-3-azabicyclo[3.2.1]oct-3-yl)-1H-pyrazolo[3,4-d]pyrimidin-6-yl]phenyl}urea] | 350 | – | – | – | 52 | 668 | 836 | 1250
CNC(=O)Nc1ccc(-c2nc(N3CC4CCC(C3)O4)c3cnn(C)c3n2)cc1 [Example 50, 1-methyl-3-{4-[1-methyl-4-(8-oxa-3-azabicyclo[3.2.1]oct-3-yl)-1H-pyrazolo[3,4-d]pyrimidin-6-yl]phenyl}urea] | 170 | – | – | – | 2 | 6290 | 247 | 700
CC(C)(C)n1ncc2c(N3CC4CCC(C3)O4)nc(-c3ccc(NC(=O)NC4CC4)cc3)nc21 [Example 96] | 1700 | – | – | – | 0.4 | > 10000 | 1140 | > 60000
CC(C)OC(=O)N1CCC(n2ncc3c(N4CC5CCC(C4)O5)nc(-c4ccc(N)cc4)nc32)CC1 [Example 65, isopropyl 4-[6-(4-aminophenyl)-4-(8-oxa-3-azabicyclo[3.2.1]oct-3-yl)-1H-pyrazolo[3,4-d]pyrimidin-1-yl]piperidine-1-carboxylate] | 1200 | – | – | – | 46 | > 10000 | 4630 | 7000
CCn1ncc2c(N3CC4CCC(C3)O4)nc(-c3ccc(NC(=O)Nc4ccccc4)cc3)nc21 [Example 46, 1-{4-[1-ethyl-4-(8-oxa-3-azabicyclo[3.2.1]oct-3-yl)-1H-pyrazolo[3,4-d]pyrimidin-6-yl]phenyl}-3-phenylurea] | 0.8 | – | – | – | 0.3 | 1610 | 68 | 12
CC(C)(C)n1ncc2c(N3CC4CCC(C3)O4)nc(-c3ccc(NC(=O)NCCF)cc3)nc21 [Example 95] | 17 | – | – | – | 0.61 | > 10000 | 1060 | 280

Now from value to compound, other results behind:

IC50 [1] [nM] | IC50 [2, 6] [nM] | IC50 [3, 7] [nM] | IC50 [4, 8] [nM] | IC50 [2] [nM] | IC50 ([3]; PI3 Kinase γ) [nM] | IC50 ([4]; PI3 Kinase α) [nM] | Structure (SMILES) | IC50 [5] [nM]
1200 | 81 | > 10000 | 5170 | – | – | – | O=C(Nc1ccc(-c2nc(N3C[C@H]4C[C@@H]3CO4)c3cnn(CC(F)(F)F)c3n2)cc1)OCCO [Example 343, 2-hydroxyethyl (4-{4-[(1R,4R)-2-oxa-5-azabicyclo[2.2.1]hept-5-yl]-1-(2,2,2-trifluoroethyl)-1H-pyrazolo[3,4-d]pyrimidin-6-yl}phenyl)carbamate] | 1500
220 | – | – | – | 8.2 | > 10000 | 1860 | CCOC(=O)Nc1ccc(-c2nc(N3CC4CCC(C3)O4)c3cnn(CCO)c3n2)cc1 [Example 208, ethyl {4-[1-(2-hydroxyethyl)-4-(8-oxa-3-azabicyclo[3.2.1]oct-3-yl)-1H-pyrazolo[3,4-d]pyrimidin-6-yl]phenyl}carbamate] | 900
1 | – | – | – | 0.295 | 7760 | 2150 | CCn1ncc2c(N3CC4CCC(C3)O4)nc(-c3ccc(NC(=O)Nc4ccc(N5CCOCC5)nc4)cc3)nc21 [Example 184, 1-{4-[1-ethyl-4-(8-oxa-3-azabicyclo[3.2.1]oct-3-yl)-1H-pyrazolo[3,4-d]pyrimidin-6-yl]phenyl}-3-(6-morpholin-4-ylpyridin-3-yl)urea] | 8
2 | 0.375 | 7440 | 1170 | – | – | – | CNC(=O)Nc1ccc(-c2nc(N3CC4CCC(C3)O4)c3cnn([C@H]4CC[C@H](OC)CC4)c3n2)cc1 (relative stereo) [Example 386, 1-{4-[1-(trans-4-methoxycyclohexyl)-4-(8-oxa-3-azabicyclo[3.2.1]oct-3-yl)-1H-pyrazolo[3,4-d]pyrimidin-6-yl]phenyl}-3-methylurea] | 37
